Laboratory results as given in patent US9487554B2, “Estra-1,3,5(10),16-tetraene-3-carboxamide derivatives, processes for their preparation, pharmaceutical preparations comprising them and their use for preparing medicaments” (BAYER INTELLECTUAL PROPERTY GmbH, priority 2011, dated 2016).
≈ marks a conversion by molar mass, not a printed value. Where “and” joins values, the source holds several entries; their conditions need not be identical. Equal values may be shown once. Read-outs that look alike come from different tables or passages of the source. Values belong to the molecule of their own block, whether it stands above or below them.

How the values were obtained:
Human CYP17A1 = Human CYP17A1 (Homo sapiens (Human), UniProt P05093); test: Inhibition of CYP17A1 (recombinant enzyme, progesterone hydroxylation, HPLC radio detection); assay type: biochemical; conditions: for IC50: read-out: IC50 ± SD CYP17
Procedure: The inhibition of CYP17A1 by the test compounds was evaluated using a recombinant enzyme. Human CYP17A1 was expressed in E. coli (Ehmer, P. B. et al.; J. Steroid Biochem. Mol. Biol., 75, 57-63 (2000)). The microsomal fraction and 140 μL of phosphate buffer (50 mM Na phosphate, 1 mM MgCl2, 0.1 mM EDTA, 0.1 mM dithiothreitol, pH 7.4) were preincubated separately with a mixture of progesterone (24.95 μM) and ^3H-progesterone (0.05 μM, 101.3 Ci/mmol), […] of an NADPH regeneration system (in phosphate buffer with 10 mM NADP+, 100 mM glucose 6-phosphate and 2.5 U of glucose 6-phosphate dehydrogenase) and the appropriate test substances (in 5 μl of DMSO) at 37° C. for 5 minutes. The reaction was started by addition of the enzyme and, after 30 minutes of incubation at 37° C., stopped by addition of 50 μl of 1N hydrochloric acid.
The steroids were extracted with ethyl acetate. After evaporation of the organic phase, the steroids were taken up in acetonitrile. 16α-Hydroxyprogesterone, 17α-hydroxyprogesterone and progesterone were separated using acetonitrile/water (45:55) as mobile phase on a C18 reverse-phase chromatography column (Nucleodur C18 Gravity, 3 μm, Macherey-Nagel, Düren, Germany) on an HPLC system (Agilent 1100 Series, Agilent Technologies, Waldbronn, Germany). Detection and quantification of the steroids was carried out using a radio flow detector (Berthold Technologies, Bad Wildbad, Germany). The inhibition was calculated using the formula below: […]
Each value was calculated from at least three independent experiments. The final IC50 value was calculated as the mean of 3 or 4 independent IC50 values.

[1] = Thermodynamic solubility in aqueous buffer pH 6.5 (shake-flask method); assay type: physicochemical; conditions: thermodynamic from solid
Procedure: Determination of the Thermodynamic Solubility in Aqueous Buffer pH 6.5 (Shake-Flask Method)
The thermodynamic solubility was determined according to the shake-flask method [literature: Edward H. Kerns and Li Di (2008) Solubility Methods in: Drug-like Properties: Concepts, Structure Design and Methods, p 276-286. Burlington, Mass., Academic Press].
Here, a saturated solution of the active compound in buffer pH 6.5 was prepared and stirred for 24 h to ensure that an equilibrium between the solid and the substance in solution had formed. The solution was then centrifuged, and the concentration of the solution obtained was quantified with the aid of a calibration line.
For the sample, 2 mg of solid substance were weighed out accurately into a 4 ml glass bottle. 1 ml of phosphate buffer pH 6.5 was added. This solution was stirred on a stirrer at room temperature for 24 h. The solution was then centrifuged. To prepare the comparison for the calibration, 2 mg of solid substance were weighed out accurately and dissolved in 30 ml of acetonitrile. After a short ultrasound treatment, the solution was diluted with water to 50 ml.
Sample and comparison were quantified using HPLC with UV detection. […]
The areas of the sample and comparison injections and the calculation of the solubility (in mg/l) were determined using the HPLC software (Waters Empower 2 FR).

recombinant human AKR1C3 = recombinant human AKR1C3 (Homo sapiens (Human), UniProt P42330); test: AKR1C3 enzyme inhibition assay (Coumberone to Coumberol fluorescence); assay type: biochemical; conditions: individual experimental determinations
Procedure: The AKR1C3-inhibitory activity of the substances of the present invention was measured in the AKR1C3 assay described in the paragraphs below.
Essentially, the enzyme activity is measured by quantification of the Coumberol from Coumberone (Halim, M., Yee, D. J., and Sames, D., J. AM. CHEM. SOC. 130, 14123-14128 (2008) and Yee, D. J., Balsanek, V., Bauman, D. R., Penning, T. M., and Sames, D., Proc. Natl. Acad. Sci. USA 103, 13304-13309 (2006)). In this test, the increase of the highly fluorescent Coumberol by NADPH—(nicotinamide adenine dinucleotide phosphate)-dependent reduction of the non-fluorescent Coumberone by AKR1C3 can be determined.
The enzyme used was recombinant human AKR1C3 (Aldo-keto reductase family 1 member C3) (GenBank Accession No. NM_003739). This was expressed in E. coli as GST (glutathione S transferase) fusion protein and purified by glutathione Sepharose affinity chromatography. The GST was removed by digestion with thrombin and subsequent size exclusion chromatography (Dufort, I., Rheault, P., Huang, X F., Soucy, P., and Luu-The, V., Endocrinology 140, 568-574 (1999)).
For the assay, 50 nl of a 100-fold concentrated solution of the test substance in DMSO were pipetted into a black low-volume 384-well microtiter plate (Greiner Bio-One, Frickenhausen, Germany), 2.0 μl of a solution of AKR1C3 in assay buffer [50 mM potassium phosphate buffer pH 7, 1 mM DTT, 0.0022% (w/v) Pluronic F-127, 0.01% BSA (w/v) and protease inhibitor cocktail (Complete, EDTA-free Protease Inhibitor Cocktail from Roche)] were added and the mixture was incubated for 15 min to allow pre-binding of the substances to the enzyme prior to the enzyme reaction. The enzyme reaction was then started by addition of 3 μl of a solution of NADPH (16.7 μM→final concentration in 5 μl of assay volume is 10 μM) and Coumberone (0.5 μM→final concentration in 5 μl of assay volume is 0.3 μM) in assay buffer, and the resulting mixture was incubated at 22° C. for the reaction time of 90 min. The concentration of the AKR1C3 was adapted to the respective activity of the enzyme preparation and adjusted such that the assay was carried out in the linear range. Typical concentrations were in the region of 1 nM. The reaction was stopped by addition of 5 μl of a stop solution consisting of the inhibitor EM-1404 [F. Labrie et al. U.S. Pat. No. 6,541,463, 2003] (2 μM→final concentration in […] is 1 μM). The fluorescence of the Coumberole was then measured at 520 nm (excitation at 380 nm) using a suitable measuring instrument (Pherastar from BMG Labtechnologies). The intensity of the fluorescence was used as a measure of the amount of Coumberole formed and thus of the enzyme activity of AKR1C3. The data were normalized (enzyme reaction without inhibitor=0% inhibition; all other assay components, but no enzyme=100% inhibition).

[2] = human CYP17A1 expressed in E. coli, mean of 3 or 4 independent IC50 values

Human CYP17A1, sequence (P05093 whole entry): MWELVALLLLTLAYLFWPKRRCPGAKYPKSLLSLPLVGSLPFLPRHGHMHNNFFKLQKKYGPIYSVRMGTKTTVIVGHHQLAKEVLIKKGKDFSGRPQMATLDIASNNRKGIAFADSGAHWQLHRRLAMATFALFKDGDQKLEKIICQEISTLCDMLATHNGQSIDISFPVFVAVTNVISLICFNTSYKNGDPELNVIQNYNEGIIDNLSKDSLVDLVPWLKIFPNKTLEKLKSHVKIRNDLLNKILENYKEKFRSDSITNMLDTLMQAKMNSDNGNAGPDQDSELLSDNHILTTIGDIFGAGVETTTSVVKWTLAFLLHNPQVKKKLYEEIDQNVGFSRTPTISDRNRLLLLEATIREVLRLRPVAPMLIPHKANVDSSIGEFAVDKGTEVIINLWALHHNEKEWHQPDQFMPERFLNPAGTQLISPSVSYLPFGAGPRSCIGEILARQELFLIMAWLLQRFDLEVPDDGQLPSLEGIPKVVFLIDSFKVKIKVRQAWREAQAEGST
recombinant human AKR1C3, sequence (P42330 whole entry): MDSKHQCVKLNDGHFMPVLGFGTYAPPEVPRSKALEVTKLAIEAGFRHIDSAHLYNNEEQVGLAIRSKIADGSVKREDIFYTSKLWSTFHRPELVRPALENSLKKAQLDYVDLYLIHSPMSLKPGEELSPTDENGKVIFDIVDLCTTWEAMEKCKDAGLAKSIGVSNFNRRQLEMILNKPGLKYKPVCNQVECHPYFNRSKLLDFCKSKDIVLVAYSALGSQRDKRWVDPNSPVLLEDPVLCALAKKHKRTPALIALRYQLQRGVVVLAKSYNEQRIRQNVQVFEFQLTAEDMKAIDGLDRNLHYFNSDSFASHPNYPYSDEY

IC50 (Human CYP17A1; [2]): 29 ± 4 nM
SMILES: C[C@]12CC[C@H](O)CC1=CC[C@@H]1[C@@H]2CC[C@]2(C)C(c3cccnc3)=CC[C@@H]12 [Abiraterone, abiraterone, reference compound]

SMILES: CC1(C)CC[C@@]2(CC[C@H]3[C@@H]4CCc5cc(C(N)=O)ccc5[C@H]4CC[C@@]32C)OC1=O [EM-1404, reference compound]
solubility at 24 h ([1]; aqueous buffer, phosphate buffer pH 6.5, room temperature, 24 h, shake-flask, read-out: solubility): 0.1 µg/mL (≈ 0.253 µM)

SMILES: CN(CCC(=O)O)C(=O)c1ccc2c(c1)CC[C@@H]1[C@@H]2CC[C@]2(C)C(c3cncc(F)c3)=CC[C@@H]12 [Example 2, N-{[17-(5-Fluoropyridin-3-yl)estra-1,3,5(10),16-tetraen-3-yl]carbonyl}-N-methyl-β-alanine]
IC50 (recombinant human AKR1C3): 1.3 nM and 1.4 nM
solubility at 24 h ([1]; pH 6.5, aqueous buffer): 354 µg/mL (≈ 765 µM)
% Inhibition at a concentration of 200 μM substance (Human CYP17A1; human CYP17, 200 μM substance): 49%
IC50 (Human CYP17A1; [2]): ~200000 nM

SMILES: CC(C)(CNC(=O)c1ccc2c(c1)CC[C@@H]1[C@@H]2CC[C@]2(C)C(c3cncc(F)c3)=CC[C@@H]12)C(=O)O [Example 5, 3-({[17-(5-Fluoropyridin-3-yl)estra-1,3,5(10),16-tetraen-3-yl]carbonyl}amino)-2,2-dimethylpropanoic acid]
IC50 (recombinant human AKR1C3): 9.1 nM and 8 nM and 4.3 nM and 3.6 nM
IC50 (Human CYP17A1; [2]): 85500 ± 7700 nM

SMILES: C[C@]12CC[C@@H]3c4ccc(C(=O)NCCC(=O)O)cc4CC[C@H]3[C@@H]1CC=C2c1cncc(F)c1 [Example 9, N-{[17-(5-Fluoropyridin-3-yl)estra-1,3,5(10),16-tetraen-3-yl]carbonyl}-β-alanine]
IC50 (recombinant human AKR1C3): 8.3 nM and 8.9 nM (2×)
IC50 ± SD CYP17 (Human CYP17A1; [2]): No inhibition

SMILES: C[C@]12CC[C@@H]3c4ccc(C(=O)NCC(=O)O)cc4CC[C@H]3[C@@H]1CC=C2c1cncc(F)c1 [Example 10, N-{[17-(5-Fluoropyridin-3-yl)estra-1,3,5(10),16-tetraen-3-yl]carbonyl}glycine]
IC50 (recombinant human AKR1C3): 4.9 nM and 7.3 nM
IC50 (Human CYP17A1; [2]): 15200 ± 1580 nM
